From US20250134875A1, “FORMULATIONS OF ALK-5 KINASE INHIBITORS AND USES THEREOF” (Thirona Bio, Inc., priority 2023, published 2025)

Test: Stability studies (storage and forced degradation)
Format: physicochemical
Method: The physical solubility of the formulation is an important factor in the development of the formulation.
The active ingredient, Compound 1, is very stable, and has known stability of greater than 5 years.
The stability studies were also conducted by storing the samples under the conditions of accelerated degradation (40° C./75% RH). The stress conditions and the resulting stability of the formulation is provided below.

## Cc1cccc(-n2ncc(C)c2-c2cc3cnccc3s2)n1 [Compound 1]
  Known stability of the active ingredient: greater than 5 years
